{"source": "patent US7297501B2", "about": "“Method and devices for running reactions on a target plate for MALDI mass spectrometry” (University of Pennsylvania, priority 2001, dated 2007)", "key": {"thrombin [1]": {"target": "T1, thrombin (Homo sapiens, UniProt P00734)", "test": "Label-free nanoliter HTS reaction on MALDI target: thrombin release of fibrinopeptides A and B from fibrinogen, MALDI MS detection", "format": "biochemical", "settings": "benzamidine in the nanoliter reaction, FIG. 26B", "protocol": "The glycerol in the reaction was then removed, and MALDI matrix was deposited to result in a thin film suitable (FIG. 26A) for MS detection of FPA/FPB.\nA 8×12 array of reactions were printed using an OmniGrid microarrayer containing varying concentrations of fibrinogen and a fibrinopeptide MS satandard. Certain reactions contained 1 mM benzamidine. The array was activated with thrombin and incubated under humidity (top row, A), the glycerol was removed (middle row, A), and then coated with MALDI matrix (bottom row, A). […] Conditions of the MALDI MS were: Voyager—DE PRO (sinapinic acid matrix), Glu1-Fibrinopeptide B (1 ug/ml) control, Reflector Mode, Positive Polarity, 1000-2000 Da Acquisition Range, 20000 V Accelerating voltage, 2033 laser. intensity (20.0 Hz; 100/spectrum), Extraction delay time: 150 nsec, Grid voltage: 75%, Guide wire voltage: 0.002%."}, "plasmin [2]": {"tested_on": "plasmin", "settings": "Morita, 1977; cited from earlier work"}, "plasmin [3]": {"target": "plasmin (Homo sapiens, UniProt P00747)", "sequence (P00747 581-810 limits assumed, species assumed)": "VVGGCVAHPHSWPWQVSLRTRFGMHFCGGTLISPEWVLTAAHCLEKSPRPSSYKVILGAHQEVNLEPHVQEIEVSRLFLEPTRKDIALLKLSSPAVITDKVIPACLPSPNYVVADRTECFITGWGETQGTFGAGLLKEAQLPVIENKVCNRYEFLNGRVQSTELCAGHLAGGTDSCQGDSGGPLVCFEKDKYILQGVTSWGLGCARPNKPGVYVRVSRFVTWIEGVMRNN", "sequence (P00747 97-580 partner limits assumed, species assumed)": "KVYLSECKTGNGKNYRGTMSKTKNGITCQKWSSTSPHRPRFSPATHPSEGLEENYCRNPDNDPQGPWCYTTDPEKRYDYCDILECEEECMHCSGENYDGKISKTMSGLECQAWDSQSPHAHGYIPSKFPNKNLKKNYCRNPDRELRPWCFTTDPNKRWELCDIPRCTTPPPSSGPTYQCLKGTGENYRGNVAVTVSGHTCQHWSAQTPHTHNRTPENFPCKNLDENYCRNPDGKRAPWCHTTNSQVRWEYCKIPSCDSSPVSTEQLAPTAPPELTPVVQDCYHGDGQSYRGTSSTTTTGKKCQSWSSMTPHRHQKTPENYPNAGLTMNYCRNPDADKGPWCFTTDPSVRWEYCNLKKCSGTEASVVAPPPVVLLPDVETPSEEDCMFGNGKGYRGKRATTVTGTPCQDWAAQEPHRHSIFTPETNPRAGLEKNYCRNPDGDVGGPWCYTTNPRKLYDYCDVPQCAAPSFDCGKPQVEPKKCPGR", "test": "Microarray assay: deposition of pure plasmin onto fluorogenic substrate array", "format": "biochemical", "settings": "pure plasmin (1 μM) deposited on the array"}, "thrombin [4]": {"target": "T1, thrombin", "test": "Microarray assay: aerosol deposition of thrombin onto fluorogenic substrates in DMSO/glycerol", "format": "biochemical", "settings": "after spray application of thrombin", "description": "Well characterized for over 30 years, serine proteases of the coagulation pathway in plasma were selected as a system in which to monitor the delivery of complex enzyme fluids to the microassay. Fluorogenic substrates in DMSO/glycerol were assayed to a glass slide.\nAfter spray application, thrombin caused a 65-fold increase in fluorescence activity after conversion of the boc-VPR-MCA substrate. […] Aerosol deposition of pure tPA (10 μM) to a sensing array caused significant cleavage of the tPA, thrombin and Xa substrates, resulting in fluorescence that was 18- to 20-fold above background."}}, "note": "*: point of attachment. AMC = Cc1cc(=O)oc2cc(N*)ccc12; Cbz = O=C(OCc1ccccc1)*", "data": [{"compound": "N=C(N)c1ccccc1", "note": "[Benzamidine]", "values": [{"measurement": "inhibition of thrombin-mediated release of fibrinopeptides A and B (FPA/FPB)", "setting": "thrombin [1]", "result": "completely inhibited the reaction"}]}, {"compound": "Cbz-Phe-Arg-{AMC}", "values": [{"measurement": "reported plasmin activity on substrate", "setting": "plasmin [2]", "result": "activity"}]}, {"compound": "boc-VLK-MCA", "values": [{"measurement": "signal above background", "setting": "plasmin [3]", "result": 25, "unit": "fold"}]}, {"compound": "boc-VPR-MCA", "values": [{"measurement": "reported plasmin activity on substrate", "setting": "plasmin [2]", "result": "activity"}, {"measurement": "increase in fluorescence activity after conversion of the substrate", "setting": "thrombin [4]", "result": 65, "unit": "fold"}]}]}
